The test system of series [1] is cancer cell strain. To be noted: cited from earlier work.
The test system of series [2] is KM-Luc/GFP cells. In words: Anticancer activity after administration into the accessory axillary lymph node, mouse model of proper axillary lymph node metastasis (KM-Luc/GFP), luciferase imaging. In kind it is in vivo. To be noted: for Luciferase activity ratio calculated by Expression 3: 0 μg/g set to 100. Also noted: key to Luciferase activity ratio calculated by Expression 3: day9/day6 normalized luciferase ratio, 0 μg/g set to 100. How it is done:
As a mouse model of lymphadenopathy, MXH10/Mo/lpr/lpr (MXH10/Mo/lpr) mice were prepared in accordance with the method previously reported (J Immunol Methods 2013; 389 (1-2): 69-78 doi 10.1016/j.jim.2013.01.004). In the following Examples, in total, 5 male and female model mice aged 15 to 18 weeks were used.
Mouse fibroblast-derived KM-Luc/GFP cells were prepared in accordance with the method previously reported (PLoS One 2013; 8 (2): e55797 doi 10.1371/journal.pone.0055797). The KM-Luc/GFP cells were obtained by transfecting MRL/MpTn-gld/gld mouse fibroblast-derived cancer cells, MRL/N1 cells, with pEGFPLuc plasmid. The KM-Luc/GFP cells constantly express a luciferase gene and a green fluorescent gene. In the following Examples, the cells were cultured in Dulbecco's modified Eagle's medium (manufactured by Sigma-Aldrich) containing 10% FBS (fetal bovine serum), 1% L-Glutamine-P.S. solution (manufactured by Thermo Fisher Scientific) and 0.5% G418 and put in use.
(§1) KM-Luc/GFP (cancer) cells, which were prepared by thawing the cells stored at −80° C. and thereafter sub-culturing them twice in total, were suspended in PBS (phosphate buffered saline) and the concentration thereof was controlled to be 1.0×10^6 cells/mL. Thereafter, the cell suspension was mixed with Matrigel (basement membrane matrix, manufactured by Becton, Dickinson and Co.) and diluted to a concentration of 3.3×10^5 cells/mL, and then, the resultant (60 μL) was inoculated into mouse subiliac lymph node (FIG. 1). The day when the cancer cells were inoculated was specified as day 0.
Using a biological fluorescence imaging system (IVIS manufactured by Caliper Life Science), the growth rates of cancer cells in the subiliac lymph node and proper axillary lymph node were determined on day 0, day 6 and day 9 after inoculation of the cancer cells. 200 μL of luciferin (manufactured by Promega), the concentration of which was controlled to be 15 mg/mL, was injected into the abdominal cavity of the mouse. Ten minutes later, luciferase activity was determined using the IVIS.
Of the mice on day 6 after cancer cell inoculation, mice having a luciferase activity of 1.0×10^6 photons/sec or more in the proper axillary lymph node were selected, and 120 μL of 5-FU was administered to the accessory axillary lymph node at a rate of 10 μL/min by use of a syringe pump (KDS100, manufactured by Muromachi) (FIG. 1).
The luciferase activities on day 6 and day 9 were normalized in accordance with the following [Expression 1]. Thereafter, the ratio of the normalized luciferase activity on day 9 to that on day 6 was calculated in accordance with the following [Expression 2]. The ratio of the normalized luciferase activity on day 9 to that on day 6 at each administration concentration of 5-FU, when the ratio of the normalized luciferase activity on day 9 to that on day 6 at administration of 0 μg/g was set to 100, was calculated in accordance with the following [Expression 3]. Normalized luciferase activity on day 6 or day 9=((luciferase activity on day 6 or day 9)/(luciferase activity on day 0)) [Expression 1] Ratio of normalized luciferase activity on day 9 to that on day 6=((normalized luciferase activity on day 9)/(normalized luciferase activity on day 6)) [Expression 2] Ratio of normalized luciferase activity on day 9 to that on day 6 at each administration concentration of 5-FU, when the ratio of normalized luciferase activity on day 9 to that on day 6 at administration of 0 μg/g was set to 100,=((ratio of normalized luciferase activity on day 9 to that on day 6 at each administration concentration of 5-FU)/(ratio of normalized luciferase activity on day 9 to that on day 6 at administration of 0 μg/g)×100) [Expression 3] 3. Results […]
The same method as in Example 1 was employed except that the test drug to be administered to the accessary axillary lymph node was changed to doxorubicin.

Series [3] relates to cancer-containing proper axillary lymph node (PALN). To be noted: administration through the subiliac lymph node (SiLN); cited from earlier work.
Series [4] concerns FM3A-Luc cells. In words: Anticancer activity of docetaxel administered into a lymph node, mouse model of proper axillary lymph node metastasis (FM3A-Luc), luciferase imaging. It counts as in vivo. To be noted: for Luciferase activity ratio calculated by Expression 6 (day 6^T): day 6^T to day −1^T. How it is done: Mouse breast cancer cell-derived FM3A-Luc cells were prepared in accordance with the method previously reported (J Immunol Methods 2013 Mar 29; 389 (1-2): 69-78. doi: 10.1016/j.jim.2013.01.004.). The FM3A-Luc cells were obtained by gene-introduction of pGL4.51 into FM3A cells by means of electroporation and constantly express a luciferase gene. In the following Examples, the cells were cultured in RPMI-1640 (manufactured by Sigma-Aldrich) containing 10% FBS (fetal bovine serum), 1% of an L-Glutamine-P.S. solution (manufactured by Theimo Fisher Scientific) and 0.5% of G418 and put in use.
As docetaxel, taxotere for intravenous infusion, 80 mg (manufactured by Sanofi K. K.) was used. Taxotere for intravenous infusion 80 mg (2 mL) was dissolved in 13% ethanol (6 mL) to prepare a 10 mg/mL stock solution. Thereafter, the stock solution was dissolved with sterile water in such a way that the concentration per mouse body-weight became 0 μg/g, 1 μg/g and 10 μg/g.
as §1, with “FM3A-Luc (cancer) cells,” for “KM-Luc/GFP (cancer) cells,”, “thawing the cancer cells stored” for “thawing the cells stored”, “were suspended with PBS (phosphate” for “were suspended in PBS (phosphate”, “and diluted up to a” for “and diluted to a”
Using a biological fluorescence imaging system (IVIS manufactured by Caliper Life Science), the growth rates of cancer cells in the subiliac lymph node and proper axillary lymph node were determined on day 0, day 7, day 14, day 17, day 20, day 23, day 26 and day 29 after inoculation of the cancer cells. 200 μL of luciferin (manufactured by Promega), the concentration of which was controlled to be 15 mg/mL, was injected into the abdominal cavity of the mouse. Ten minutes later, luciferase activity was determined using the IVIS.
To a mouse confirmed to have a luciferase activity of 1.0×10^6 photons/sec or more in the proper axillary lymph node, docetaxel (120 μL) was administered to the accessory axillary lymph node on the day following confirmation at a rate of 10 μL/min by use of a syringe pump (KDS100, manufactured by Muromachi) (FIG. 1).
The day when docetaxel was administered was defined as day 0^T. The luciferase activity on day 3^T (3 days after administration of docetaxel) and the luciferase activity on day 6^T (6 days after administration of docetaxel) were normalized in accordance with the following [Expression 4]. Thereafter, the ratio of the normalized luciferase activity on day 3^T or day 6^T to that on day −1^T (the day when the luciferase activity in the proper axillary lymph node was confirmed to be 1.0×10^6 photons/sec or more and the day before docetaxel administration) was calculated in accordance with the following [Expression 5]. The ratio of the normalized luciferase activity on day 3^T or day 6^T to that on day −1^T at each administration concentration of docetaxel, when the ratio of the normalized luciferase activity on day 3^T or day 6^T to that on day −1^T at administration of 0 μg/g was set to 100, was calculated in accordance with the following [Expression 6]. […]

Where [5] appears, read: 0.1 μg/g into accessory axillary lymph node, day 9 to day 6 ratio in proper axillary lymph node.
The mark [6] stands for this setting: 1 μg/g into accessory axillary lymph node, day 9 to day 6 ratio.
[7] abbreviates: 10 μg/g into accessory axillary lymph node, day 9 to day 6 ratio.

Counter-ions that a name gives are not always drawn.

With `COc1cccc2c1C(=O)c1c(O)c3c(c(O)c1C2=O)C[C@@](O)(C(=O)CO)C[C@@H]3O[C@H]1C[C@H](N)[C@H](O)[C@H](C)O1` [Doxorubicin, doxorubicin hydrochloride], the “cell growth inhibitory activity (GI50 value) of doxorubicin, times as high as those of 5-FU and CPT-11” value in series [1] is 10 to 1,000 times. Moreover, the “Luciferase activity ratio calculated by Expression 3” value is 40.9 in series [2] (setting [5]), 43.2 in series [2] (setting [6]) and 75.0 in series [2] (setting [7]). Moreover, the “best tumor reduction ratio” value in series [2] (dose 1 μg/g) is listed as “less than 60%”. For the same compound, in series [2] (dose 10 μg/g), the tumor reduction ratio result is recorded as “about 25%”. In series [3], the “anticancer effect in the proper axillary lymph node” value is reported as “resulted in an anticancer effect”.
On to `CCc1c2c(nc3ccc(OC(=O)N4CCC(N5CCCCC5)CC4)cc13)-c1cc3c(c(=O)n1C2)COC(=O)[C@]3(O)CC` [CPT-11, irinotecan hydrochloride], for which the “Luciferase activity ratio calculated by Expression 3” value in series [2] (0.5 μg/g into accessory axillary lymph node, day 9 to day 6 ratio) is 6.06; in series [2] (5 μg/g into accessory axillary lymph node, day 9 to day 6 ratio) it was 3.03. In addition, the tumor regression effect in series [2] (dose 0.5 μg/g) is reported as no less than 90%.
As for `O=c1[nH]cc(F)c(=O)[nH]1` [5-FU, 5-fluorouracil], the figures for the “Luciferase activity ratio calculated by Expression 3” value in series [2] (setting [5]), in series [2] (setting [6]) and in series [2] (setting [7]) were 9.27, 9.12 and 1.49, respectively. In series [2] (dose 0.1 μg/g), the tumor regression effect is no less than 90%.
For the compound `CC(=O)O[C@@]12CO[C@@H]1C[C@H](O)[C@@]1(C)C(=O)[C@H](O)C3=C(C)[C@@H](OC(=O)[C@H](O)[C@@H](NC(=O)OC(C)(C)C)c4ccccc4)C[C@@](O)([C@@H](OC(=O)c4ccccc4)[C@H]21)C3(C)C` [Docetaxel, docetaxel], the “cell growth inhibitory activity of docetaxel compared with doxorubicin” value in series [1] was “almost equal to that of doxorubicin”. For the same compound, the “Luciferase activity ratio calculated by Expression 6 (day 6^T)” value is 7.5 in series [4] (1 μg/g into accessory axillary lymph node, 0 μg/g set to 100) and 1.7 in series [4] (10 μg/g into accessory axillary lymph node, 0 μg/g set to 100). The “Luciferase activity ratio calculated by Expression 6 (day 3^T)” value in series [4] (10 μg/g into accessory axillary lymph node, day 3^T to day −1^T, 0 μg/g set to 100) is 16.2. For the same compound, the tumor regression effect in series [4] (dose 1 μg/g, day 6 after initiation of treatment) is reported as no less than 90%. Besides, the tumor reduction ratio in series [4] (dose 10 μg/g) is no less than 80%.

The record behind these values is patent publication US11559526B2, “Drug effective for lymphogenous drug administrating method” (TOHOKU UNIVERSITY, priority 2016, dated 2023).
